Earlier results, collected in patent US9730971B2 (priority 2008, dated 2017).

Assays:
Details in all cases: reported in Non Patent Literature 2
[1] = system: fungi such as Saccharomyces cerevisiae, Candida utilis, and Penichillium chrysogenum
[2] = system: Gram-negative bacteria such as Escherichia coli, Enterobacter aerogenes, and Pseudomonas aeruginosa
[3] = system: Gram-positive bacteria such as Staphylococcos aureus, Streptococcus mutans, Bacillus subtilis, and Bacillus ammoniagenes

**Q.** For `CCCCCCCCCCCCCCCc1cccc(O)c1C(=O)O` [anacardic acid], which antimicrobial action [1] is on record?
**A.** no antimicrobial action

**Q.** And the antimicrobial action [2]?
**A.** no antimicrobial action

**Q.** What about the antimicrobial action [3] of the same compound?
**A.** antimicrobial action
